According to article PMC4947980 (Journal of Medicinal Chemistry, 2016):
Converted amounts (≈) assume the structure as drawn. “And” between values parts separate entries of the source, which are not always exact repeats. Equal values may be shown once.

Tests used:
[1] = tested on: nonreplicating M. tuberculosis; assay: microbe, parasite or virus in culture; format: cell-based, Mycobacterium tuberculosis mc^26220 (ΔpanCDΔlysA); conditions: for activity against nonreplicating M. tuberculosis, in words: multistress nonreplicating model; for NR-MIC90 3 days OD580 = 0.01 / NR-MIC90 3 days OD580 = 0.1: 3 days exposure
[2] = Stability in cell-free PBS and nonreplicating medium; format: physicochemical; conditions: day 6; for d6: % remaining NR medium + 0.5 mM NaNO2: cell-free nonreplicating medium pH 5.0 with 0.5 mM NaNO2, 37 °C; for d6: % remaining in PBS: cell-free PBS pH 7.4, 37 °C; for d6: % remaining NR medium: cell-free nonreplicating medium pH 5.0 without NaNO2, 37 °C
[3] = tested on: replicating M. tuberculosis; assay: MIC90 against replicating M. tuberculosis; format: cell-based, Mycobacterium tuberculosis mc^26220 (ΔpanCDΔlysA); conditions: for activity against replicating M. tuberculosis on addition of clavulanate: data not shown; for R-MIC90 3 days OD580 = 0.01: replicating
[4] = Hydrolytic stability at pH 2, 7 and 12; format: physicochemical; conditions: percent remaining after a 4 h incubation at 37 °C
Solubility at pH 7.4 = format: physicochemical; conditions: after shaking at room temperature for 4 h
Plasma stability, mouse = conditions: 1 μg/mL, 37 °C, parent ion monitored
[5] = tested on: intracellular M. tuberculosis; conditions: for CFU reduction of intracellular M. tuberculosis: IFNγ-activated macrophages, 100 μg/mL, 4 days (1) or 3 days (5)
[6] = Mouse liver microsomal stability; format: in vitro ADME; conditions: assayed at 0-60 min
[7] = Human liver microsomal stability; format: in vitro ADME; conditions: liver microsomes, human liver microsomes t1/2, assayed at 0-60 min
[8] = tested on: nonreplicating wild-type M. tuberculosis; format: cell-based, Mycobacterium tuberculosis H37Rv; conditions: for bactericidal activity against nonreplicating wild-type M. tuberculosis (Figure S2): in words
[9] = tested on: nonreplicating M. tuberculosis; assay: Charcoal agar resazurin assay; format: cell-based; conditions: for dose-dependent decrease of CARA fluorescence, effect of NaNO2: with or without 0.5 mM NaNO2, 7 days, OD580 0.1 or 0.01
[10] = Parallel artificial membrane permeability assay; format: in vitro ADME
M. tuberculosis = conditions: cited from earlier work
[11] = nonreplicating, 6 days exposure

SMILES: CCCN[C@@H]1C(=O)N2C(C(=O)OCCC)=C(C)CS[C@H]12 [compound 3]
- activity against nonreplicating M. tuberculosis, in words [1]: significant activity
- NR-MIC90 3 days OD580 = 0.01 ([1]; nonreplicating, OD580 = 0.01): 0.7 µg/mL
- NR-MIC90 3 days OD580 = 0.1 ([1]; nonreplicating): 2.69 µg/mL
- NR-MIC90 6 days OD580 = 0.1 [1, 11]: 0.45 µg/mL
- d6: % remaining NR medium + 0.5 mM NaNO2 [2]: unstable
- activity against replicating M. tuberculosis on addition of clavulanate ([3]; addition of clavulanate): did not lead to activity
- R-MIC90 3 days OD580 = 0.01 [3]: >100 µg/mL

SMILES: CCCOC(=O)C1=C(C)CS[C@@H]2[C@H](NC(=O)[C@H](N)c3ccccc3)C(=O)N12 [4b]
- MIC90 ([1]; Mycobacterium tuberculosis, read-out: NR d7 OD=0.1 MIC90): 15.5 µg/mL (≈ 39.8 µM)

SMILES: CC1=C(c2nc(C)no2)N2C(=O)[C@@H](NC(=O)[C@H](N)c3ccccc3)[C@H]2SC1 [4c]
- activity against nonreplicating M. tuberculosis, in words [1]: poorly active
- activity against replicating M. tuberculosis, in words [3]: completely inactive

SMILES: COCC1=C(C)CS[C@@H]2[C@H](NC(=O)COc3ccccc3)C(=O)N12 [compound 10]
- activity against nonreplicating M. tuberculosis, in words [1]: inactive

SMILES: CC1=C(c2nc(C)no2)N2C(=O)[C@@H](NC(=O)COc3ccccc3)[C@H]2SC1 [compound 5, N-((6R,7R)-3-Methyl-2-(3-methyl-1,2,4-oxadiazol-5-yl)-8-oxo-5-thia-1-azabicyclo[4.2.0]oct-2-en-7-yl)-2-phenoxyacetamide]
- pH 2 stability [4]: 100%
- pH 12 stability [4]: 0.000%
- solubility (Solubility at pH 7.4): 83.7 µM (≈ 32.3 µg/mL)
- d6: % remaining NR medium + 0.5 mM NaNO2 [2]: stable
- stability in mouse plasma (time to complete transformation) (Plasma stability, mouse): < 5 min
- CFU reduction of intracellular M. tuberculosis [5]: 1–2 log10
- IFNγ dependence of bactericidal activity against intracellular M. tuberculosis ([5]; macrophages activated or not with 50 ng/mL IFNγ): strictly IFNγ dependent
- mouse liver microsomes t1/2 [6]: rapidly metabolized
- half-life [7]: ~1.33 h
- concentration that reduced colony-forming units by 2 log10 [8]: 0.7–0.8 μg/mL
- bactericidal activity against nonreplicating wild-type M. tuberculosis (Figure S2) [8]: bactericidal
- dose-dependent decrease of CARA fluorescence, effect of NaNO2 [9]: strongly enhanced by the addition of NaNO2
- PAMPA log Pe [10]: –4.87

SMILES: CCCc1noc(C2=C(C)CS[C@@H]3[C@H](NC(=O)c4ccc(Cl)cc4)C(=O)N23)n1 [compound 23]
- bactericidal activity against nonreplicating wild-type M. tuberculosis (Figure S2) [8]: bactericidal

SMILES: CCCOC(=O)N[C@@H]1C(=O)N2C(C(=O)OCCC)=C(C)CS[C@H]12 [compound 2]
- NR-MIC90 3 days OD580 = 0.01 ([1]; nonreplicating, OD580 = 0.01): 3.11 µg/mL
- NR-MIC90 3 days OD580 = 0.1 ([1]; nonreplicating): 2.61 µg/mL
- NR-MIC90 6 days OD580 = 0.1 [1, 11]: 0.52 µg/mL
- d6: % remaining in PBS [2]: stable
- d6: % remaining NR medium + 0.5 mM NaNO2 [2]: stable
- d6: % remaining NR medium [2]: stable
- activity against replicating M. tuberculosis on addition of clavulanate ([3]; addition of clavulanate): did not lead to activity
- R-MIC90 3 days OD580 = 0.01 [3]: 55.44 µg/mL

SMILES: CCCOC(=O)C1=C(C)CS[C@@H]2[C@H](NC(=O)COc3ccccc3)C(=O)N12 [compound 1, Propyl (6R,7R)-3-Methyl-8-oxo-7-(2-phenoxyacetamido)-5-thia-1-azabicyclo[4.2.0]oct-2-ene-2-carboxylate]
- NR-MIC90 3 days OD580 = 0.01 ([1]; nonreplicating, OD580 = 0.01): 0.90 µg/mL
- NR-MIC90 3 days OD580 = 0.1 ([1]; nonreplicating): 1.76 µg/mL
- NR-MIC90 6 days OD580 = 0.01 ([1]; nonreplicating, 6 days exposure, OD580 = 0.01): 0.64 µg/mL
- NR-MIC90 6 days OD580 = 0.1 [1, 11]: 1.05 µg/mL
- pH 2 stability [4]: 100% and 110%
- pH 12 stability [4]: 0.000%
- solubility (Solubility at pH 7.4): 22.7 µM (≈ 8.86 µg/mL)
- solubility at 4 h (Solubility at pH 7.4; pH 7.4, solubility): 23 µM (≈ 8.98 µg/mL)
- d6: % remaining in PBS [2]: stable
- d6: % remaining NR medium + 0.5 mM NaNO2 [2]: stable
- d6: % remaining NR medium [2]: stable
- stability in mouse plasma (time to complete transformation) (Plasma stability, mouse): < 5 min
- CFU reduction of intracellular M. tuberculosis [5]: 1–2 log10
- activity against replicating M. tuberculosis on addition of clavulanate ([3]; addition of clavulanate): did not lead to activity
- R-MIC90 3 days OD580 = 0.01 [3]: >100 µg/mL
- mouse liver microsomes t1/2 [6]: rapidly metabolized
- concentration that reduced colony-forming units by 2 log10 [8]: 0.7–0.8 μg/mL
- enhancement of activity by nitrite ([9]; CARA, OD580 0.01, 0.5 mM NaNO2): 32- to 64 fold
- dose-dependent decrease of CARA fluorescence, effect of NaNO2 [9]: strongly enhanced by the addition of NaNO2
- PAMPA log Pe [10]: –5.15

SMILES: CC1=C(c2nc(C)no2)N2C(=O)[C@@H](NC(=O)COc3ccc(Cl)cc3)[C@H]2SC1 [18d]
- bactericidal activity against nonreplicating wild-type M. tuberculosis (Figure S2) [8]: bactericidal

SMILES: C[C@@H](O)[C@H]1C(=O)N2C(C(=O)O)=C([C@H]3CCCO3)S[C@H]12 [faropenem, reference compound]
- activity against nonreplicating M. tuberculosis, in words [1]: inactive
- killing of replicating and nongrowing M. tuberculosis (M. tuberculosis): kill both replicating and nongrowing M. tuberculosis

SMILES: CCCc1noc(C2=C(C)CS[C@@H]3[C@H](NC(=O)COc4ccc(Cl)cc4)C(=O)N23)n1 [22c]
- bactericidal activity against nonreplicating wild-type M. tuberculosis (Figure S2) [8]: bactericidal

SMILES: COC(=O)C1=C(C)CS[C@@H]2[C@H](NC(=O)[C@H](N)c3ccccc3)C(=O)N12 [4a]
- activity against nonreplicating M. tuberculosis, in words [1]: poorly active
- activity against replicating M. tuberculosis, in words [3]: completely inactive

SMILES: CCCc1noc(C2=C(C)CS[C@@H]3[C@H](NC(=O)CCc4ccc(OC)cc4)C(=O)N23)n1 [21b]
- bactericidal activity against nonreplicating wild-type M. tuberculosis (Figure S2) [8]: bactericidal

SMILES: CCCCOC(=O)C1=C(C)CS[C@@H]2[C@H](NC(=O)CCc3ccccc3)C(=O)N12 [12e]
- bactericidal activity against nonreplicating wild-type M. tuberculosis (Figure S2) [8]: bactericidal

SMILES: CC1=C(C(=O)O)N2C(=O)[C@@H](NC(=O)[C@H](N)c3ccccc3)[C@H]2SC1 [cephalexin 4, cephalexin, reference compound]
- activity against nonreplicating M. tuberculosis, in words [1]: inactive
- NR-MIC90 3 days OD580 = 0.01 ([1]; nonreplicating, OD580 = 0.01): 97.93 µg/mL
- NR-MIC90 3 days OD580 = 0.1 ([1]; nonreplicating): 61.35 µg/mL
- NR-MIC90 6 days OD580 = 0.1 [1, 11]: 70.42 µg/mL
- R-MIC90 3 days OD580 = 0.01 [3]: 33.99 µg/mL

SMILES: CCOC(=O)C1=C(C)CS[C@@H]2[C@H](NC(=O)CCc3ccc(OC)cc3)C(=O)N12 [12i]
- bactericidal activity against nonreplicating wild-type M. tuberculosis (Figure S2) [8]: bactericidal

SMILES: C[C@@H](O)[C@H]1C(=O)N2C(C(=O)O)=C(S[C@@H]3CN[C@H](C(=O)N(C)C)C3)[C@H](C)[C@H]12 [Meropenem, reference compound]
- enhancement of replicating MIC90 by clavulanate ([3]; addition of clavulanate): 4 fold

SMILES: CC1=C(c2nc(C)no2)N2C(=O)[C@@H](NC(=O)OCC(Cl)(Cl)Cl)[C@H]2SC1 [19d]
- bactericidal activity against nonreplicating wild-type M. tuberculosis (Figure S2) [8]: bactericidal
